Test results published in ChEMBL document CHEMBL6182831, “Thiazole-fused androstenone and ethisterone derivatives: potent β- and γ-actin cytoskeleton inhibitors to treat melanoma tumors” (RSC Med Chem, 2025).

Assays:
Format in all cases: functional
[1] = tested on: B16-F10; test: Cytotoxicity against mouse B16-F10 cells assessed as inhibition of cell growth incubated for 24 hrs by resazurin staining based analysis; details: B16-F10, 24 h
[2] = tested on: LOX IMVI; test: Cytotoxicity against human LOX IMVI cells assessed as inhibition of cell growth incubated for 24 hrs by resazurin staining based analysis
[3] = tested on: SK-MEL-28; test: Cytotoxicity against human SK-MEL-28 cells assessed as inhibition of cell growth incubated for 24 hrs by resazurin staining based analysis; details: SK-MEL-28, 24 h
[4] = tested on: SK-MEL-25; test: Cytotoxicity against human SK-MEL-25 cells assessed as inhibition of cell growth incubated for 24 hrs by resazurin staining based analysis; details: SK-MEL-25, 24 h
[5] = tested on: SK-MEL-5; test: Cytotoxicity against human SK-MEL-5 cells assessed as inhibition of cell growth incubated for 24 hrs by resazurin staining based analysis; details: SK-MEL-5, 24 h

Structure (SMILES) | IC50 [1] | IC50 [2] | IC50 [3] | IC50 [4] | IC50 [5]
C#C[C@]1(O)CC[C@H]2[C@@H]3CC=C4c5sc(Nc6cc(OC)ccc6Cl)nc5CC[C@]4(C)[C@H]3CC[C@@]21C | 9.7 µM | 3.2 µM | 3.4 µM | 3.1 µM | 4.8 µM
COc1ccc(Cl)cc1Nc1nc2c(s1)C1=CC[C@@H]3[C@H](CC[C@]4(C)C(=O)CC[C@@H]34)[C@@]1(C)CC2 | 3.6 µM | 3 µM | 4.8 µM | > 20 µM | > 20 µM
COc1ccc(OC)c(Nc2nc3c(s2)C2=CC[C@@H]4[C@H](CC[C@]5(C)C(=O)CC[C@@H]45)[C@@]2(C)CC3)c1 | 6.4 µM | 6.2 µM | > 20 µM | > 20 µM | > 20 µM
C[C@]12CCc3nc(Nc4ccccc4F)sc3C1=CC[C@@H]1[C@@H]2CC[C@]2(C)C(=O)CC[C@@H]12 | 5.4 µM | 6.7 µM | 6.4 µM | > 20 µM | > 20 µM
C#C[C@]1(O)CC[C@H]2[C@@H]3CC=C4c5sc(Nc6cccnc6)nc5CC[C@]4(C)[C@H]3CC[C@@]21C | 10.7 µM | 2.6 µM | 2.3 µM | 2.1 µM | 3 µM
C#C[C@]1(O)CC[C@H]2[C@@H]3CC=C4c5sc(Nc6cccc(Cl)n6)nc5CC[C@]4(C)[C@H]3CC[C@@]21C | 3.8 µM | 5.5 µM | 2.4 µM | 5.7 µM | 2.7 µM
C#C[C@]1(O)CC[C@H]2[C@@H]3CC=C4c5sc(-c6cccc(F)c6)nc5CC[C@]4(C)[C@H]3CC[C@@]21C | 8.5 µM | 15.3 µM | 14 µM | > 20 µM | 20 µM
C#C[C@]1(O)CC[C@H]2[C@@H]3CC=C4c5sc(-c6ccc7c(c6)OCO7)nc5CC[C@]4(C)[C@H]3CC[C@@]21C | 13 µM | > 20 µM | 6.1 µM | 4.2 µM | 4.9 µM
C#C[C@]1(O)CC[C@H]2[C@@H]3CC=C4c5sc(Nc6cc(C)cc(C)n6)nc5CC[C@]4(C)[C@H]3CC[C@@]21C | 10.2 µM | 4.1 µM | 5.5 µM | 6.5 µM | 2.5 µM
C#C[C@]1(O)CC[C@H]2[C@@H]3CC=C4c5sc(Nc6ccncc6)nc5CC[C@]4(C)[C@H]3CC[C@@]21C | 6.7 µM | 2.5 µM | 4.2 µM | 7.9 µM | 2.9 µM
C#C[C@]1(O)CC[C@H]2[C@@H]3CC=C4c5sc(Nc6ccccn6)nc5CC[C@]4(C)[C@H]3CC[C@@]21C | 7.6 µM | 7.5 µM | 3.4 µM | 4 µM | 2.6 µM
C#C[C@]1(O)CC[C@H]2[C@@H]3CC=C4c5sc(Nc6ccc(F)cn6)nc5CC[C@]4(C)[C@H]3CC[C@@]21C | 3.1 µM | 5.4 µM | 3.5 µM | 3.2 µM | 2.8 µM
C#C[C@]1(O)CC[C@H]2[C@@H]3CC=C4c5sc(Nc6ccc(Cl)cn6)nc5CC[C@]4(C)[C@H]3CC[C@@]21C | 3 µM | 5.4 µM | 3.7 µM | 8.3 µM | 4.8 µM
C#C[C@]1(O)CC[C@H]2[C@@H]3CC=C4c5sc(-c6ccc(O)cc6)nc5CC[C@]4(C)[C@H]3CC[C@@]21C | 4.7 µM | 3.3 µM | 2.5 µM | 3.7 µM | 3.2 µM
C#C[C@]1(O)CC[C@H]2[C@@H]3CC=C4c5sc(Nc6cc(C)cc(C)c6)nc5CC[C@]4(C)[C@H]3CC[C@@]21C | 5.8 µM | 3.6 µM | 5 µM | 3.8 µM | 3.9 µM
C#C[C@]1(O)CC[C@H]2[C@@H]3CC=C4c5sc(Nc6ccc(C)c(Cl)c6)nc5CC[C@]4(C)[C@H]3CC[C@@]21C | 4.9 µM | 3.9 µM | 5.6 µM | 4.6 µM | 4.3 µM
Cc1ccc(Nc2nc3c(s2)C2=CC[C@@H]4[C@H](CC[C@]5(C)C(=O)CC[C@@H]45)[C@@]2(C)CC3)cc1 | 4.9 µM | 4.2 µM | 4 µM | 4.3 µM | 7.3 µM
C[C@]12CCc3nc(Nc4ccccc4)sc3C1=CC[C@@H]1[C@@H]2CC[C@]2(C)C(=O)CC[C@@H]12 | 5.8 µM | 2.7 µM | 6.1 µM | 6.8 µM | 10.6 µM
C#C[C@]1(O)CC[C@H]2[C@@H]3CC=C4c5sc(Nc6ccc(C)cn6)nc5CC[C@]4(C)[C@H]3CC[C@@]21C | 7.7 µM | 3.6 µM | 4.6 µM | 4.8 µM | 3.7 µM
C#C[C@]1(O)CC[C@H]2[C@@H]3CC=C4c5sc(Nc6ccc(OC)cc6OC)nc5CC[C@]4(C)[C@H]3CC[C@@]21C | 7.7 µM | 3.4 µM | 4.7 µM | 3.3 µM | 3 µM
C[C@]12CCc3nc(Nc4ccc(F)cc4F)sc3C1=CC[C@@H]1[C@@H]2CC[C@]2(C)C(=O)CC[C@@H]12 | 5.5 µM | 2.8 µM | 5.3 µM | > 20 µM | 11.5 µM
C[C@]12CCc3nc(Nc4ncccn4)sc3C1=CC[C@@H]1[C@@H]2CC[C@]2(C)C(=O)CC[C@@H]12 | 3 µM | > 20 µM | > 20 µM | 1.8 µM | 1.3 µM
Cc1cc(C)cc(Nc2nc3c(s2)C2=CC[C@@H]4[C@H](CC[C@]5(C)C(=O)CC[C@@H]45)[C@@]2(C)CC3)c1 | 8 µM | 2.5 µM | 2.5 µM | 3.2 µM | > 20 µM
C#C[C@]1(O)CC[C@H]2[C@@H]3CC=C4c5sc(Nc6cccc(C)n6)nc5CC[C@]4(C)[C@H]3CC[C@@]21C | 6.5 µM | 2.8 µM | 3 µM | 5.1 µM | 3.9 µM
C#C[C@]1(O)CC[C@H]2[C@@H]3CC=C4c5sc(N6CCN(C)CC6)nc5CC[C@]4(C)[C@H]3CC[C@@]21C | 2.8 µM | 7.4 µM | 2 µM | 2.8 µM | 2.6 µM
C#C[C@]1(O)CC[C@H]2[C@@H]3CC=C4c5sc(Nc6cc(Cl)ccn6)nc5CC[C@]4(C)[C@H]3CC[C@@]21C | 3.8 µM | 3 µM | 2.8 µM | 4.4 µM | 3.6 µM
C[C@]12CCc3nc(Nc4ccc(F)cc4)sc3C1=CC[C@@H]1[C@@H]2CC[C@]2(C)C(=O)CC[C@@H]12 | 4.5 µM | 1.8 µM | 3.4 µM | 1.4 µM | 6.4 µM
C[C@]12CCc3nc(Nc4ccc(OC(F)(F)F)cc4)sc3C1=CC[C@@H]1[C@@H]2CC[C@]2(C)C(=O)CC[C@@H]12 | 11.7 µM | 9.3 µM | > 20 µM | 12.5 µM | > 20 µM
